# Reference: PubChem BioAssay (NCI)
#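 Dose response: 5 concentrations. Exposure: 48 h. Format: 96-well plates. Endpoint: linear interpolation; highest concentration if not reached. GI50 marks 50% less growth. TGI: concentration producing complete growth inhibition.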
# Experiments:
# Assay in all cases: growth of human tumour cells (NCI), 48 h
# SF-268 CNS = system: SF-268 CNS
# T-47D breast = system: T-47D breast
# MALME-3M melanoma = system: MALME-3M melanoma
# CCRF-CEM leukemia = system: CCRF-CEM leukemia
# UACC-62 melanoma = system: UACC-62 melanoma
# A549 NSCLC = system: A549 NSCLC
# EKVX NSCLC = system: EKVX NSCLC
# CAKI-1 renal = system: CAKI-1 renal
# HCT-116 colon = system: HCT-116 colon
# A498 renal = system: A498 renal
# HOP-62 NSCLC = system: HOP-62 NSCLC
# HS 578T breast = system: HS 578T breast
# SK-MEL-28 melanoma = system: SK-MEL-28 melanoma
# SK-MEL-2 melanoma = system: SK-MEL-2 melanoma
# SF-539 CNS = system: SF-539 CNS
# KM12 colon = system: KM12 colon
# NCI-H460 lung = system: NCI-H460 lung
# K-562 leukemia = system: K-562 leukemia
# UO-31 renal = system: UO-31 renal
# M14 melanoma = system: M14 melanoma
# HCC-2998 colon = system: HCC-2998 colon
# RPMI-8226 leukemia = system: RPMI-8226 leukemia
# RXF 393 renal = system: RXF 393 renal
# ACHN renal = system: ACHN renal
# BT-549 breast = system: BT-549 breast
# MCF7 breast = system: MCF7 breast
# OVCAR-8 ovarian = system: OVCAR-8 ovarian
# HOP-92 NSCLC = system: HOP-92 NSCLC
# NCI/ADR-RES ovarian = system: NCI/ADR-RES ovarian
# NCI-H522 lung = system: NCI-H522 lung
# DU-145 prostate = system: DU-145 prostate
# 786-0 renal = system: 786-0 renal
# NCI-H226 lung = system: NCI-H226 lung
# HCT-15 colon = system: HCT-15 colon
# U251 CNS = system: U251 CNS
# MDA-MB-231 breast = system: MDA-MB-231 breast
# HT29 colon = system: HT29 colon
# SN12C renal = system: SN12C renal
# SNB-75 CNS = system: SNB-75 CNS
# OVCAR-4 ovarian = system: OVCAR-4 ovarian
# OVCAR-5 ovarian = system: OVCAR-5 ovarian
# MDA-MB-435 = system: MDA-MB-435
# TK-10 renal = system: TK-10 renal
# SW-620 colon = system: SW-620 colon
# MOLT-4 leukemia = system: MOLT-4 leukemia
# SF-295 CNS = system: SF-295 CNS
# SNB-19 CNS = system: SNB-19 CNS
# SK-MEL-5 melanoma = system: SK-MEL-5 melanoma
# HL-60(TB) leukemia = system: HL-60(TB) leukemia
# NCI-H23 lung = system: NCI-H23 lung
# SR leukemia = system: SR leukemia
# PC-3 prostate = system: PC-3 prostate
# OVCAR-3 ovarian = system: OVCAR-3 ovarian
# SK-OV-3 ovarian = system: SK-OV-3 ovarian
# UACC-257 melanoma = system: UACC-257 melanoma
# LOX IMVI melanoma = system: LOX IMVI melanoma
# COLO 205 colon = system: COLO 205 colon
# IGROV1 ovarian = system: IGROV1 ovarian
# MDA-N = system: MDA-N
smiles,measurement,setting,value
COc1cccc(-n2cnc3c(N/N=C/c4ccncc4)ncnc32)c1,GI50,SF-268 CNS,24.5 µM
same,TGI,SF-268 CNS,> 25 µM
same,GI50,T-47D breast,11.2 µM
same,TGI,T-47D breast,> 25 µM
same,GI50,MALME-3M melanoma,10.2 µM
same,TGI,MALME-3M melanoma,> 25 µM
same,GI50,CCRF-CEM leukemia,> 25 µM
same,TGI,CCRF-CEM leukemia,> 25 µM
same,GI50,UACC-62 melanoma,8.2 µM
same,TGI,UACC-62 melanoma,> 25 µM
same,GI50,A549 NSCLC,17.6 µM
same,TGI,A549 NSCLC,> 25 µM
same,GI50,EKVX NSCLC,> 25 µM
same,TGI,EKVX NSCLC,> 25 µM
same,GI50,CAKI-1 renal,7.34 µM
same,TGI,CAKI-1 renal,> 25 µM
same,GI50,HCT-116 colon,15.1 µM
same,TGI,HCT-116 colon,> 25 µM
same,GI50,A498 renal,7.1 µM
same,TGI,A498 renal,> 23.2 µM
same,GI50,HOP-62 NSCLC,> 25 µM
same,TGI,HOP-62 NSCLC,> 25 µM
same,GI50,HS 578T breast,7.47 µM
same,TGI,HS 578T breast,> 25 µM
same,GI50,SK-MEL-28 melanoma,13 µM
same,TGI,SK-MEL-28 melanoma,> 25 µM
same,GI50,SK-MEL-2 melanoma,11.6 µM
same,TGI,SK-MEL-2 melanoma,> 25 µM
same,GI50,SF-539 CNS,> 18.9 µM
same,TGI,SF-539 CNS,> 25 µM
same,GI50,KM12 colon,7.84 µM
same,TGI,KM12 colon,> 25 µM
same,GI50,NCI-H460 lung,13.6 µM
same,TGI,NCI-H460 lung,> 25 µM
same,GI50,K-562 leukemia,10.9 µM
same,TGI,K-562 leukemia,> 25 µM
same,GI50,UO-31 renal,8.26 µM
same,TGI,UO-31 renal,> 25 µM
same,GI50,M14 melanoma,10.3 µM
same,TGI,M14 melanoma,> 25 µM
same,GI50,HCC-2998 colon,> 25 µM
same,TGI,HCC-2998 colon,> 25 µM
same,GI50,RPMI-8226 leukemia,> 25 µM
same,TGI,RPMI-8226 leukemia,> 25 µM
same,GI50,RXF 393 renal,6.42 µM
same,TGI,RXF 393 renal,> 25 µM
same,GI50,ACHN renal,9.06 µM
same,TGI,ACHN renal,> 25 µM
same,GI50,BT-549 breast,> 23.8 µM
same,TGI,BT-549 breast,> 25 µM
same,GI50,MCF7 breast,> 25 µM
same,TGI,MCF7 breast,> 25 µM
same,GI50,OVCAR-8 ovarian,> 20.6 µM
same,TGI,OVCAR-8 ovarian,> 25 µM
same,GI50,HOP-92 NSCLC,> 10.4 µM
same,TGI,HOP-92 NSCLC,> 25 µM
same,GI50,NCI/ADR-RES ovarian,> 25 µM
same,TGI,NCI/ADR-RES ovarian,> 25 µM
same,GI50,NCI-H522 lung,> 14.6 µM
same,TGI,NCI-H522 lung,> 25 µM
same,GI50,DU-145 prostate,17.3 µM
same,TGI,DU-145 prostate,> 25 µM
same,GI50,786-0 renal,19.5 µM
same,TGI,786-0 renal,> 25 µM
same,GI50,NCI-H226 lung,> 23.9 µM
same,TGI,NCI-H226 lung,> 25 µM
same,GI50,HCT-15 colon,9.83 µM
same,TGI,HCT-15 colon,> 25 µM
same,GI50,U251 CNS,> 25 µM
same,TGI,U251 CNS,> 25 µM
same,GI50,MDA-MB-231 breast,> 20.3 µM
same,TGI,MDA-MB-231 breast,> 25 µM
same,GI50,HT29 colon,8.07 µM
same,TGI,HT29 colon,> 25 µM
same,GI50,SN12C renal,13.2 µM
same,TGI,SN12C renal,> 25 µM
same,GI50,SNB-75 CNS,7.45 µM
same,TGI,SNB-75 CNS,> 25 µM
same,GI50,OVCAR-4 ovarian,11.6 µM
same,TGI,OVCAR-4 ovarian,> 25 µM
same,GI50,OVCAR-5 ovarian,> 25 µM
same,TGI,OVCAR-5 ovarian,> 25 µM
same,GI50,MDA-MB-435,12.4 µM
same,TGI,MDA-MB-435,> 25 µM
same,GI50,TK-10 renal,9.59 µM
same,TGI,TK-10 renal,> 25 µM
same,GI50,SW-620 colon,> 25 µM
same,TGI,SW-620 colon,> 25 µM
same,GI50,MOLT-4 leukemia,> 25 µM
same,TGI,MOLT-4 leukemia,> 25 µM
same,GI50,SF-295 CNS,> 25 µM
same,TGI,SF-295 CNS,> 25 µM
same,GI50,SNB-19 CNS,> 25 µM
same,TGI,SNB-19 CNS,> 25 µM
same,GI50,SK-MEL-5 melanoma,10.5 µM
same,TGI,SK-MEL-5 melanoma,> 25 µM
same,GI50,HL-60(TB) leukemia,> 25 µM
same,TGI,HL-60(TB) leukemia,> 25 µM
same,GI50,NCI-H23 lung,> 25 µM
same,TGI,NCI-H23 lung,> 25 µM
same,GI50,SR leukemia,12.3 µM
same,TGI,SR leukemia,> 25 µM
same,GI50,PC-3 prostate,> 25 µM
same,TGI,PC-3 prostate,> 25 µM
same,GI50,OVCAR-3 ovarian,> 20.8 µM
same,TGI,OVCAR-3 ovarian,> 25 µM
same,GI50,SK-OV-3 ovarian,7.88 µM
same,TGI,SK-OV-3 ovarian,> 23.7 µM
same,GI50,UACC-257 melanoma,> 19.7 µM
same,TGI,UACC-257 melanoma,> 25 µM
same,GI50,LOX IMVI melanoma,12.8 µM
same,TGI,LOX IMVI melanoma,> 25 µM
same,GI50,COLO 205 colon,11.4 µM
same,TGI,COLO 205 colon,> 25 µM
same,GI50,IGROV1 ovarian,8.65 µM
same,TGI,IGROV1 ovarian,> 25 µM
CS(=O)(=O)c1ccc(C2=C(c3ccccc3)C(=O)OC2)cc1,TGI,SF-268 CNS,> 100 µM
same,TGI,T-47D breast,> 100 µM
same,TGI,MALME-3M melanoma,> 100 µM
same,TGI,CCRF-CEM leukemia,> 100 µM
same,TGI,UACC-62 melanoma,> 100 µM
same,TGI,A549 NSCLC,> 100 µM
same,TGI,EKVX NSCLC,> 100 µM
same,TGI,CAKI-1 renal,> 100 µM
same,TGI,HCT-116 colon,> 100 µM
same,TGI,A498 renal,> 100 µM
same,TGI,HOP-62 NSCLC,> 100 µM
same,TGI,HS 578T breast,> 100 µM
same,TGI,SK-MEL-28 melanoma,> 100 µM
same,TGI,SK-MEL-2 melanoma,> 100 µM
same,TGI,SF-539 CNS,> 100 µM
same,TGI,KM12 colon,> 100 µM
same,TGI,NCI-H460 lung,> 100 µM
same,TGI,K-562 leukemia,> 100 µM
same,TGI,UO-31 renal,> 100 µM
same,TGI,M14 melanoma,> 100 µM
same,TGI,HCC-2998 colon,> 100 µM
same,TGI,RPMI-8226 leukemia,> 100 µM
same,TGI,RXF 393 renal,> 100 µM
same,TGI,ACHN renal,> 100 µM
same,TGI,MCF7 breast,> 100 µM
same,TGI,OVCAR-8 ovarian,> 100 µM
same,TGI,MDA-N,> 100 µM
same,TGI,HOP-92 NSCLC,> 100 µM
same,TGI,NCI/ADR-RES ovarian,> 100 µM
same,TGI,NCI-H522 lung,> 100 µM
same,TGI,DU-145 prostate,> 100 µM
same,TGI,786-0 renal,> 100 µM
same,TGI,NCI-H226 lung,> 100 µM
same,TGI,HCT-15 colon,> 100 µM
same,TGI,U251 CNS,> 100 µM
same,TGI,MDA-MB-231 breast,> 100 µM
same,TGI,SN12C renal,> 100 µM
same,TGI,SNB-75 CNS,> 100 µM
same,TGI,OVCAR-4 ovarian,> 100 µM
same,TGI,OVCAR-5 ovarian,> 100 µM
same,TGI,MDA-MB-435,> 100 µM
same,TGI,TK-10 renal,> 100 µM
same,TGI,SW-620 colon,> 100 µM
same,TGI,MOLT-4 leukemia,> 100 µM
same,TGI,SF-295 CNS,> 100 µM
same,TGI,SNB-19 CNS,> 100 µM
same,TGI,SK-MEL-5 melanoma,> 100 µM
same,TGI,HL-60(TB) leukemia,> 100 µM
same,TGI,NCI-H23 lung,> 100 µM
same,TGI,SR leukemia,> 100 µM
same,TGI,PC-3 prostate,> 100 µM
same,TGI,OVCAR-3 ovarian,> 100 µM
same,TGI,SK-OV-3 ovarian,> 100 µM
same,TGI,UACC-257 melanoma,> 100 µM
same,TGI,LOX IMVI melanoma,> 100 µM
same,TGI,COLO 205 colon,> 100 µM
same,TGI,IGROV1 ovarian,> 100 µM
